Experimental data as given in patent US12692254B2, “Benzimidazole inhibitors of PAD enzymes” (BRISTOL-MYERS SQUIBB COMPANY, priority 2018, dated 2026).

Target: human PAD4 (hPAD4) (Homo sapiens, UniProt Q9UM07)
Experiment: RFMS human PAD4 functional assay (rapid-fire mass spectrum)
Format: biochemical
Conditions: 5 nM hPAD4 enzyme, 250 μM BAEE, 50 μM Calcium; 30 min preincubation, 90 min reaction at 37° C.
Method in brief: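 PAD4 (10 nM) preincubated 30 min with compound (top final 50 μM), then BAEE substrate added in pH 7.5 HEPES buffer with DTT, 50 μM calcium, TPEN; 90 min at 37° C. After TCA quench, citrulline derivatized with phenyl glyoxal (4 mM final, 30 min, 37° C) and quantified by RapidFire MS against internal standard.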

human PAD4 (hPAD4), sequence (Q9UM07 whole entry): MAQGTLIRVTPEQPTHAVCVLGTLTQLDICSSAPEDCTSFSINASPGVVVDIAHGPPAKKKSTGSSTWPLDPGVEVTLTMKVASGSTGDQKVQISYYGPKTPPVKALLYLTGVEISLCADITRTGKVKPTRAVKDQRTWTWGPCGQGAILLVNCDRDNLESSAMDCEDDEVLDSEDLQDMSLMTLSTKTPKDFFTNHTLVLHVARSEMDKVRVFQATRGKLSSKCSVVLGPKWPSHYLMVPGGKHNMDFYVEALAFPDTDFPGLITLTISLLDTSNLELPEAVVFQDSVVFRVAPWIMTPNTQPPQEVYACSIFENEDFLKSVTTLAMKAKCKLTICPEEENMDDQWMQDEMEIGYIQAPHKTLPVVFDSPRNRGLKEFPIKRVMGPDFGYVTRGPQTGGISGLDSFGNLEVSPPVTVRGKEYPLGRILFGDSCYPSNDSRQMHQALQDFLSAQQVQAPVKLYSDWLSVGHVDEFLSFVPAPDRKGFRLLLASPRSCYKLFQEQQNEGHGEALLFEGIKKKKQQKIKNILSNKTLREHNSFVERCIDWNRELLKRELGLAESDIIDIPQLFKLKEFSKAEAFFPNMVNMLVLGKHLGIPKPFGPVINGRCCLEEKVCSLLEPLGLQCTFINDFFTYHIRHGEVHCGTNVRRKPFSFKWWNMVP

| Compound | IC50 |
| --- | --- |
| COc1cc(C(=O)N2CC3CCC2[C@@H]3N)cc2nc(-c3cc4cccnc4n3CC3CC3)n(Cc3cc(C)nn3C)c12 (stereo partly drawn) [Example 494, (7R)-2-{2-[1-(cyclopropylmethyl)-1H-pyrrolo[2,3-b]pyridin-2-yl]-1-[(1,3-dimethyl-1H-pyrazol-5-yl)methyl]-7-methoxy-1H-1,3-benzodiazole-5-carbonyl}-2-azabicyclo[2.2.1]heptan-7-amine] | 86 nM |
| COc1cc(C(=O)N2CC3CCC2[C@@H]3N)cc2nc(-c3cc4cccnc4n3CC3CC3)n(CC3CCN(c4ncccn4)C3)c12 (stereo in doubt) [Example 231, (1R,4R,7R)-2-{2-[1-(cyclopropylmethyl)-1H-pyrrolo[2,3-b]pyridin-2-yl]-7-methoxy-1-{[(3S)-1-(pyrimidin-2-yl)pyrrolidin-3-yl]methyl}-1H-1,3-benzodiazole-5-carbonyl}-2-azabicyclo [2.2.1]heptan-7-amine] | 203 nM |
| COc1cc(C(=O)N2CC3CCC2[C@@H]3N)cc2nc(-c3cc4ccccc4n3CC3CC3)n(C[C@H]3CCN(c4ccnc(C)n4)C3)c12 (stereo partly drawn) [Example 224, (1R.,4R,7R)-2-{2-[1-(cyclopropylmethyl)-1H-indol-2-yl]-7-methoxy-1-{[(3S)-1-(2-methylpyrimidin-4-yl)pyrrolidin-3-yl]methyl}-1H-1,3-benzodiazole-5-carbonyl}-2-azabicyclo[2.2.1]heptan-7-amine] | 19 nM |
| COc1cc(C(=O)N2C[C@H]3CC[C@@H]2[C@@H]3N)cc2nc(-c3csc4ccc(Cl)cc34)n(CC3CN(c4ccnc(C)n4)C3)c12 [Example 324, (1R,4R,7R)-2-[2-(5-chloro-1-benzothiophen-3-yl)-7-methoxy-1-{[1-(2-methylpyrimidin-4-yl)azetidin-3-yl]methyl}-1H-1,3-benzodiazole-5-carbonyl]-2-azabicyclo[2.2.1]heptan-7-amine] | 1880 nM |
| COc1cc(C(=O)N2CC3CCC2[C@@H]3N)cc2nc(-c3cc4cccnc4n3CC3CC3)n(Cc3cnn(-c4cccc(C)n4)c3)c12 (stereo partly drawn) [Example 355, (7R)-2-{2-[1-(cyclopropylmethyl)-1H-pyrrolo[2,3-b]pyridin-2-yl]-7-methoxy-1-{[1-(6-methylpyridin-2-yl)-1H-pyrazol-4-yl]methyl}-1H-1,3-benzodiazole-5-carbonyl}-2-azabicyclo[2.2.1]heptan-7-amine] | 22 nM |
| COc1cc(C(=O)N2C[C@H]3CC[C@@H]2[C@@H]3N)cc2nc(-c3cc4ccccc4n3CC3CC3)n(Cc3cnn(-c4ccccc4)c3)c12 [Example 253, (1R,4R,7R)-2-{2-[1-(cyclopropylmethyl)-1H-indol-2-yl]-7-methoxy-1-[(1-phenyl-1H-pyrazol-4-yl)methyl]-1H-1,3-benzodiazole-5-carbonyl}-2-azabicyclo[2.2.1]heptan-7-amine] | 27 nM |
| COc1cc(C(=O)N2C[C@H](N)C[C@@H](F)C2)cc2nc(-c3cc4cccnc4n3CC3CC3)n(CC3CN(C(=O)c4ccccc4)C3)c12 [Example 452, (3R,5R)-1-{[(1-benzoylazetidin-3-yl)methyl]-2-[1-(cyclopropylmethyl)-1H-pyrrolo[2,3-b]pyridin-2-yl]-7-methoxy-1H-1,3-benzodiazole-5-carbonyl}-5-fluoropiperidin-3-amine] | 48 nM |
| COc1cc(C(=O)N2CCC[C@@H](N)C2)cc2nc(-c3cc4cccnc4n3CC3CC3)n([C@H]3C[C@@H](N)C3)c12 [Example 303, (3R)-1-{2-[1-(cyclopropylmethyl)-1H-pyrrolo[2,3-b]pyridin-2-yl]-7-methoxy-1-[(1s,3s)-3-aminocyclobutyl]-1H-1,3-benzodiazole-5-carbonyl}piperidin-3-amine] | 1650 nM |
| COc1cc(C(=O)N2C[C@H]3CC[C@@H]2[C@@H]3N)cc2nc(-c3cc4cccnc4n3CC3CC3)n(C3CN(C(=O)c4ccnc(C)n4)C3)c12 [Example 97, (1R,4R,7R)-2-{2-[1-(cyclopropylmethyl)-1H-pyrrolo[2,3-b]pyridin-2-yl]-7-methoxy-1-[1-(2-methylpyrimidine-4-carbonyl)azetidin-3-yl]-1H-1,3-benzodiazole-5-carbonyl}-2-azabicyclo[2.2.1]heptan-7-amine] | 63 nM |
| Cc1cc(C(=O)N2CC3CCC2[C@@H]3N)cc2nc(-c3cc4ccccc4n3CC3CC3)n(CC3CN(C(=O)c4ccc(C#N)cc4)C3)c12 (stereo partly drawn) [Example 449, 4-[3-({5-[(7R)-7-amino-2-azabicyclo[2.2.1]heptane-2-carbonyl]-2-[1-(cyclopropylmethyl)-1H-indol-2-yl]-7-methyl-1H-1,3-benzodiazol-1-yl}methyl)azetidine-1-carbonyl]benzonitrile] | 44 nM |
| COc1cc(C(=O)N2C[C@H]3CC[C@@H]2[C@@H]3N)cc2nc(-c3cc4cccnc4n3C)n(CC3CN(c4ncccn4)C3)c12 [Example 83, (1R,4R,7R)-2-(7-methoxy-2-{1-methyl-1H-pyrrolo[2,3-b]pyridin-2-yl}-1-{[1-(pyrimidin-2-yl)azetidin-3-yl]methyl}-1H-1,3-benzodiazole-5-carbonyl)-2-azabicyclo[2.2.1]heptan-7-amine] | 440 nM |
| COc1cc(C(=O)N2CC3CCC2[C@@H]3N)cc2nc(-c3cc4cccnc4n3CC3CC3)n(CC3CN(C(=O)c4cc(F)ccc4F)C3)c12 (stereo partly drawn) [Example 422, (7R)-2-{2-[1-(cyclopropylmethyl)-1H-pyrrolo[2,3-b]pyridin-2-yl]-1-{[1-(2,5-difluorobenzoyl)azetidin-3-yl]methyl}-7-methoxy-1H-1,3-benzodiazole-5-carbonyl}-2-azabicyclo[2.2.1]heptan-7-amine] | 22 nM |
| COc1cc(C(=O)N2CC3CCC2[C@@H]3N)cc2nc(-c3cc4cccnc4n3CC3CC3)n(C3CCN(c4ccnc(C)n4)CC3)c12 (stereo partly drawn) [Example 238, (1R.,4R,7R)-2-{2-[1-(cyclopropylmethyl)-1H-pyrrolo[2,3-b]pyridin-2-yl]-7-methoxy-1-[1-(2-methylpyrimidin-4-yl)piperidin-4-yl]-1H-1,3-benzodiazole-5-carbonyl}-2-azabicyclo[2.2.1]heptan-7-amine] | 922 nM |
| COc1ccc(C(=O)N2CC(Cn3c(-c4cc5ccccc5n4CC4CC4)nc4cc(C(=O)N5C[C@H]6CC[C@@H]5[C@@H]6N)cc(OC)c43)C2)cc1 [Example 153, (1R,4R,7R)-2-{2-[1-(cyclopropylmethyl)-1H-indol-2-yl]-7-methoxy-1-{[1-(4-methoxybenzoyl)azetidin-3-yl]methyl}-1H-1,3-benzodiazole-5-carbonyl}-2-azabicyclo[2.2.1]heptan-7-amine] | 21 nM |
| COc1cc(C(=O)N2C[C@H]3CC[C@@H]2[C@@H]3N)cc2nc(-c3cc4cccnc4n3CC3CC3)n(C3CN(C(=O)c4ccncn4)C3)c12 [Example 100, (1R,4R,7R)-2-{2-[1-(cyclopropylmethyl)-1H-pyrrolo[2,3-b]pyridin-2-yl]-7-methoxy-1-[1-(pyrimidine-4-carbonyl)azetidin-3-yl]-1H-1,3-benzodiazole-5-carbonyl}-2-azabicyclo[2.2.1]heptan-7-amine] | 117 nM |
| COc1cc(C(=O)N2C[C@H]3CC[C@@H]2[C@@H]3N)cc2nc(-c3cc4ccccc4n3CC3CC3)n(CC3CN(C(=O)c4cc(C#N)ccc4F)C3)c12 [Example 174, 3-[3-({5-[(1R,4R,7R)-7-amino-2-azabicyclo[2.2.1]heptane-2-carbonyl]-2-[1-(cyclopropylmethyl)-1H-indol-2-yl]-7-methoxy-1H-1,3-benzodiazol-1-yl}methyl)azetidine-1-carbonyl]-4-fluorobenzonitrile] | 64 nM |
| COc1cc(C(=O)N2C[C@H]3CC[C@@H]2[C@@H]3N)cc2nc(-c3cc4cccnc4n3CC3CC3)n(C3CN(C(=O)c4ccnc(Cl)n4)C3)c12 [Example 94, (1R,4R,7R)-2-{1-[1-(2-chloropyrimidine-4-carbonyl)azetidin-3-yl]-2-[1-(cyclopropylmethyl)-1H-pyrrolo[2,3-b]pyridin-2-yl]-7-methoxy-1H-1,3-benzodiazole-5-carbonyl}-2-azabicyclo[2.2.1]heptan-7-amine] | 34 nM |
| COc1cc(C(=O)N2CC3CCC2[C@@H]3N)cc2nc(-c3cc4ccccc4n3CC3CC3)n(CC3CC(=O)N(C)C3)c12 (mixture of isomers) [Example 262, 4-({5-[(1R,4R,7R)-7-amino-2-azabicyclo[2.2.1]heptane-2-carbonyl]-2-[1-(cyclopropylmethy!)-1H-indol-2-yl]-7-methoxy-1H-1,3-benzodiazol-1-yl}methyl)-1-methylpyrrolidin-2-one] | 55 nM |
| COc1cc(C(=O)N2C[C@H]3CC[C@@H]2[C@@H]3N)cc2nc(-c3cc4ccccc4n3CC3CC3)n(CC3CCC(=O)N3)c12 (stereo partly drawn) [Example 275, 5-({5-[(1R,4R,7R)-7-amino-2-azabicyclo[2.2.1]heptane-2-carbonyl]-2-[1-(cyclopropylmethyl)-1H-indol-2-yl]-7-methoxy-1H-1,3-benzodiazol-1-yl}methyl)pyrrolidin-2-one] | 298 nM |
| COc1cc(C(=O)N2C[C@H](N)C[C@@H](F)C2)cc2nc(-c3cc4cccnc4n3CC3CC3)n(Cc3cnn(-c4cccn(C)c4=O)c3)c12 [Example 347, 3-[4-({5-[(3R,5R)-3-amino-5-fluoropiperidine-1-carbonyl]-2-[1-(cyclopropyimethyl)-1H-pyrrolo[2,3-b]pyridin-2-yl]-7-methoxy-1H-1,3-benzodiazol-1-yl}methyl)-1H-pyrazol-1-yl]-1-methyl-1,2-dihydropyridin-2-one] | 97 nM |
| COc1cc(C(=O)N2CC3CCC2[C@@H]3N)cc2nc(-c3cc4ccccc4n3CC3CC3)n(Cc3cnn(-c4ccc(C)nc4)c3)c12 (stereo partly drawn) [Example 350, (7R)-2-{2-[1-(cyclopropylmethyl)-1H-indol-2-yl]-7-methoxy-1-{[1-(6-methylpyridin-3-yl)-1H-pyrazol-4-yl]methyl}-1H-1,3-benzodiazole-5-carbonyl}-2-azabicyclo[2.2.1]heptan-7-amine] | 16 nM |
